Experimental data from patent US6620953B1, “Method for producing monoaryloxy-ansa-metallocenes” (Bassell Polyolefine GmbH, priority 1998, dated 2003).

How the values were obtained:
[1] = Solubility comparison in toluene at room temperature; type: physicochemical; settings: 50 mg in toluene at room temperature
[2] = Propylene polymerization with supported metallocene/MAO/SiO2 catalyst; settings: metallocene 0.047 mmol in 30% MAO/toluene (Al/Zr=215) on SiO2; liquid propylene, 60° C., one hour
Protocol: (§1) 35.1 mg (0.047 mmol) of (3) were stirred in 2.1 ml of 30% strength MAO solution in toluene (Al/Zr=215) for 60 minutes at room temperature. 2 g of SiO2 (Grace XPO2107, pretreated at 140° C., 10 mbar, 10 hours) were subsequently added and the mixture was stirred for another 10 minutes. The solvent was removed in an oil pump vacuum.
A dry 2 l reactor was flushed firstly with nitrogen and subsequently propylene and charged with 1.5 l of liquid propylene. 2 ml of TEA (20% strength in Varsol) were added and the mixture was stirred for 15 minutes. The catalyst system prepared above (0.886 g) was then resuspended in 20 ml of heptane and injected into reactor and rinsed in using 15 ml of heptane. The reaction mixture was heated to the polymerization temperature of 60° C. and polymerization was carried out for one hour. The polymerization was stopped by venting the remaining propylene. The polymer was dried in a vacuum drying oven. This gave 470 g of polypropylene powder. […] The catalyst activity was 0.53 kg of PP/g of catalyst x h.
as §1, with “27.1” for “35.1”, “dimethylsilanediylbis(2-methyl-4,5-benzoindenyl)zirconium dichloride” for “(3)”, “The solvent was removed in an oil pump vacuum.” left out

Cc1cc2ccccc2[c-]1[Si](C)(C)[c-]1c(C)cc2ccccc21.[Cl-].[Cl-].[Zr+4] (racemic) [Rac-Dimethylsilanediylbis(2-methylindenyl)-zirconium Dichloride]
solubility [1]: about 2.1 mmol/l

CC1=Cc2c(ccc3ccccc23)[C]12[Si](C)(C)[C]1(C(C)=Cc3c1ccc1ccccc31)[Zr]2([Cl])[Cl] (stereo not drawn) [Rac-Dimethylsilanediylbis(2-methyl-4,5-benzoindenyl)zirconium Dichloride]
catalyst activity [2]: 0.46 kg of PP/g of catalyst x h | solubility [1]: about 0.36 mmol/l

CC1=Cc2c(ccc3ccccc23)[C]12[Si](C)(C)[C]1(C(C)=Cc3c1ccc1ccccc31)[Zr]2([Cl])[O]c1ccc(C(C)(C)C)cc1C(C)(C)C (stereo not drawn) [compound 3, Pseudo-rac-Dimethylsilanediylbis(2-methyl-4,5-benzo-indenyl)zirconium Monochloride Mono(2,4-di-tert-butylphenoxide)]
catalyst activity [2]: 0.53 kg of PP/g of catalyst x h | solubility [1]: > 13 mM

CC1=Cc2ccccc2[C]12[Si](C)(C)[C]1(C(C)=Cc3ccccc31)[Zr]2([Cl])[O]c1ccc(C(C)(C)C)cc1C(C)(C)C (stereo not drawn) [compound 4, Pseudo-rac-Dimethylsilanediylbis(2-methylindenyl)-zirconium Monochloride Mono(2,4-di-tert-butylphenoxide)]
solubility [1]: > 15 mM
